Data on two compounds can be found in patent publication US10335454B2, “Combination and use” (HELPERBY THERAPEUTICS LIMITED, priority 2014, dated 2019).

For test [1], the system named is log phase NDM-1 E. coli (BAA2469 strain). Put plainly: Time-kill of suloctidil and colistin, alone and in combination, against log phase NDM-1 E. coli. The note with it: FIGS. 28 to 34. In kind it is cell-based. The procedure: Materials and Methods • Bacterial strain used: BAA2469 strain of NDM-1 E. coli • Growth of bacteria: Log phase growth of bacteria was carried out according to methods known in the art.
(§1) (i) Suloctidil was obtained from a commercial source and dissolved in DMSO to make a stock concentration of 10 mg/ml.
(§2) (ii) Colistin was obtained from a commercial source at a concentration of 20 mg/ml.
Both suloctidil and colistin were then added to 96 well plates either alone or in the combinations shown below in Table 2.
(§3) The overnight culture was diluted with nutrient broth (Oxoid) to 10^7 CFU/ml and 280 μl and 290 μl of the culture was added to each combination well and single agent well, respectively, to make a final […] of 300 μl. Incubation of the compounds with the bacterial suspension was carried out for 24 hours. At 0, 2, 4, 7 and 25 hours, CFU counts were performed to measure the kill effects of the drug combination.

The subject of test [2] is log phase NDM-1 Klebsiella pneumoniae (NCTC 13443 strain). Put plainly: Time-kill of suloctidil and colistin, alone and in combination, against log phase NDM-1 Klebsiella pneumoniae. It counts as cell-based. As to conditions: for kill effect (CFU counts): colistin alone 16 μg/ml, FIG. 19. The procedure: The synergistic effect of suloctidil in combination with colistin was tested against log phase NDM-1 Klebsiella pneumoniae using time-kill methods over a period of 24 hours.
Bacterial strain used: NCTC 13443 strain of NDM-1 Klebsiella pneumoniae
Growth of bacteria: Log phase growth of the bacteria was carried out according to methods known in the art.
as §1, §2
Both suloctidil and colistin were then added to 96 well plates either alone or in the combinations shown below in Table 1.
as §3

Turning to `CCCCCCCCNC(C)C(O)c1ccc(SC(C)C)cc1` (centres unmarked) [suloctidil], the “antimicrobial effect when used alone” value is recorded as “no antimicrobial effect” in test [1] (suloctidil alone at 16, 8 and 4 μg/ml); “no antimicrobial effect” in test [2] (suloctidil alone at 32, 16, 8 and 4 μg/ml, time-kill, FIGS. 18 to 27).

colistin: the “antimicrobial effect when used alone” value in test [1] (colistin alone at 8, 4, 2 and 1 μg/ml) is reported as “no antimicrobial effect”; in test [2] (colistin alone at 8 and 4 μg/ml, time-kill, FIGS. 20, 21, 24, 25 and 27), “no antimicrobial effect”; in test [2] (colistin alone at 32 and 16 μg/ml, time-kill, FIGS. 18, 19, 22, 23 and 26) it was “antimicrobial effect”. Besides, the “kill effect (CFU counts)” value is “complete kill” in test [2] (after 7 hours) and “bacteria re-growth” in test [2] (after 25 hours). In addition, the “duration of the antimicrobial effect” value in test [2] (colistin alone at 32 and 16 μg/ml, time-kill) is recorded as “not long term”.
